Test results: PubChem BioAssay AID1259407 (Chemical Carcinogenesis Research Information System (CCRIS), 2018)
Activity calls are given as the source filed them. No rule for the calls is given here.

Test system: CCRIS mutagenicity, Ames/micronucleus/aberration tests
Test: CCRIS mutagenicity studies

## Nc1ccccc1N
End Point: IN VITRO CHROMOSOMAL ABERRATIONS, Test System: CHINESE HAMSTER LUNG CELLS (CHL), Metabolic Activation: NONE
  mutagenic call: active; positive (structural changes)
End Point: IN VITRO CHROMOSOMAL ABERRATIONS, Test System: CHINESE HAMSTER LUNG CELLS (CHL), Metabolic Activation: RAT, LIVER, S-9, KC-400
  mutagenic call: inactive; negative
End Point: IN VITRO CHROMOSOMAL ABERRATIONS, Test System: CHINESE HAMSTER OVARY CELLS (CHO), Metabolic Activation: NONE
  mutagenic call: active; positive (structural changes)
End Point: IN VITRO CHROMOSOMAL ABERRATIONS, Test System: CHINESE HAMSTER OVARY CELLS (CHO), Metabolic Activation: RAT, LIVER, S-9, AROCLOR 1254
  mutagenic call: active; positive (structural changes)
End Point: IN VITRO CHROMOSOMAL ABERRATIONS, Test System: CHL CELLS, Metabolic Activation: NONE
  mutagenic call: active; positive (structural changes)
End Point: IN VITRO CHROMOSOMAL ABERRATIONS, Test System: CHL CELLS, Metabolic Activation: RAT, LIVER, S-9, SODIUM PHENOBARBITAL AND 5,6-BENZOFLAVONE
  mutagenic call: active; positive (structural changes)
Test System: AMES SALMONELLA TYPHIMURIUM, Strain/Indicator: TA97, Metabolic Activation: HAMSTER, LIVER, S-9, AROCLOR 1254 (10%), Method: PREINCUBATION
  mutagenic call: active; positive
Test System: AMES SALMONELLA TYPHIMURIUM, Strain/Indicator: TA97, Metabolic Activation: NONE, Method: PREINCUBATION
  mutagenic call: inactive; negative
Test System: AMES SALMONELLA TYPHIMURIUM, Strain/Indicator: TA97, Metabolic Activation: RAT, LIVER, S-9, AROCLOR 1254 (10%), Method: PREINCUBATION
  mutagenic call: active; positive
Test System: AMES SALMONELLA TYPHIMURIUM, Strain/Indicator: TA98(NR), Metabolic Activation: NONE, Method: PREINCUBATION
  mutagenic call: inactive; negative
Test System: AMES SALMONELLA TYPHIMURIUM, Strain/Indicator: TA98(NR), Metabolic Activation: RAT, LIVER, S-9, AROCLOR 1254, Method: PREINCUBATION
  mutagenic call: active; positive
Test System: AMES SALMONELLA TYPHIMURIUM, Strain/Indicator: TA98, Metabolic Activation: HAMSTER, LIVER, S-9, AROCLOR 1254 (10%), Method: PREINCUBATION
  mutagenic call: active; positive
Test System: AMES SALMONELLA TYPHIMURIUM, Strain/Indicator: TA98, Metabolic Activation: NONE, Method: STANDARD PLATE
  mutagenic call: inactive; negative
Test System: AMES SALMONELLA TYPHIMURIUM, Strain/Indicator: TA98, Metabolic Activation: PEA APICAL BUD S-9, Method: PREINCUBATION
  mutagenic call: active; positive
Test System: AMES SALMONELLA TYPHIMURIUM, Strain/Indicator: TA98, Metabolic Activation: PEA APICAL BUD S-9, Method: STANDARD PLATE
  mutagenic call: active; positive
Test System: AMES SALMONELLA TYPHIMURIUM, Strain/Indicator: TA98, Metabolic Activation: PLANT (PERSEA AMERICANA) S-117, Method: STANDARD PLATE
  mutagenic call: inactive; negative
Test System: AMES SALMONELLA TYPHIMURIUM, Strain/Indicator: TA98, Metabolic Activation: PLANT (ZEA MAYS) S-9, Method: STANDARD PLATE
  mutagenic call: inactive; negative
Test System: AMES SALMONELLA TYPHIMURIUM, Strain/Indicator: TA98, Metabolic Activation: RAT LIVER S-9, PHENOBARBITAL AND BETA-NAPHTHOFLAVONE, Method: PREINCUBATION
  mutagenic call: active; positive
Test System: AMES SALMONELLA TYPHIMURIUM, Strain/Indicator: TA98, Metabolic Activation: RAT, LIVER, S-9, AROCLOR 1254 (10%), Method: PREINCUBATION
  mutagenic call: active; positive
Test System: AMES SALMONELLA TYPHIMURIUM, Strain/Indicator: TA98, Metabolic Activation: RAT, LIVER, S-9, AROCLOR 1254, Method: PREINCUBATION
  mutagenic call: active; positive
Test System: AMES SALMONELLA TYPHIMURIUM, Strain/Indicator: TA98, Metabolic Activation: RAT, LIVER, S-9, AROCLOR 1254, Method: STANDARD PLATE
  mutagenic call: active; positive
Test System: AMES SALMONELLA TYPHIMURIUM, Strain/Indicator: TA98, Metabolic Activation: RAT, LIVER, S-9, PCB, Method: PREINCUBATION
  mutagenic call: active; positive
Test System: AMES SALMONELLA TYPHIMURIUM, Strain/Indicator: TA100(NR), Metabolic Activation: NONE, Method: PREINCUBATION
  mutagenic call: inactive; negative
Test System: AMES SALMONELLA TYPHIMURIUM, Strain/Indicator: TA100(NR), Metabolic Activation: RAT, LIVER, S-9, AROCLOR 1254, Method: PREINCUBATION
  mutagenic call: active; positive
Test System: AMES SALMONELLA TYPHIMURIUM, Strain/Indicator: TA100, Metabolic Activation: HAMSTER, LIVER, S-9, AROCLOR 1254 (10%), Method: PREINCUBATION
  mutagenic call: active; positive
Test System: AMES SALMONELLA TYPHIMURIUM, Strain/Indicator: TA100, Metabolic Activation: NONE, Method: STANDARD PLATE
  mutagenic call: inactive; negative
Test System: AMES SALMONELLA TYPHIMURIUM, Strain/Indicator: TA100, Metabolic Activation: PEA APICAL BUD S-9, Method: PREINCUBATION
  mutagenic call: active; positive
Test System: AMES SALMONELLA TYPHIMURIUM, Strain/Indicator: TA100, Metabolic Activation: PEA APICAL BUD S-9, Method: STANDARD PLATE
  mutagenic call: active; positive
Test System: AMES SALMONELLA TYPHIMURIUM, Strain/Indicator: TA100, Metabolic Activation: PLANT (PERSEA AMERICANA) S-117, Method: STANDARD PLATE
  mutagenic call: inactive; negative
Test System: AMES SALMONELLA TYPHIMURIUM, Strain/Indicator: TA100, Metabolic Activation: PLANT (ZEA MAYS) S-9, Method: STANDARD PLATE
  mutagenic call: inactive; negative
Test System: AMES SALMONELLA TYPHIMURIUM, Strain/Indicator: TA100, Metabolic Activation: RAT LIVER S-9, PHENOBARBITAL AND BETA-NAPHTHOFLAVONE, Method: PREINCUBATION
  mutagenic call: active; positive
Test System: AMES SALMONELLA TYPHIMURIUM, Strain/Indicator: TA100, Metabolic Activation: RAT, LIVER, S-9, AROCLOR 1254 (10%), Method: PREINCUBATION
  mutagenic call: active; positive
Test System: AMES SALMONELLA TYPHIMURIUM, Strain/Indicator: TA100, Metabolic Activation: RAT, LIVER, S-9, PCB, Method: PREINCUBATION
  mutagenic call: active; positive
Test System: AMES SALMONELLA TYPHIMURIUM, Strain/Indicator: TA1535, Metabolic Activation: HAMSTER, LIVER, S-9, AROCLOR 1254 (10%), Method: PREINCUBATION
  mutagenic call: inactive; negative
Test System: AMES SALMONELLA TYPHIMURIUM, Strain/Indicator: TA1535, Metabolic Activation: NONE, Method: PREINCUBATION
  mutagenic call: inactive; negative
Test System: AMES SALMONELLA TYPHIMURIUM, Strain/Indicator: TA1535, Metabolic Activation: RAT LIVER S-9, PHENOBARBITAL AND BETA-NAPHTHOFLAVONE, Method: PREINCUBATION
  mutagenic call: inactive; negative
Test System: AMES SALMONELLA TYPHIMURIUM, Strain/Indicator: TA1535, Metabolic Activation: RAT, LIVER, S-9, AROCLOR 1254 (10%), Method: PREINCUBATION
  mutagenic call: inactive; negative
Test System: AMES SALMONELLA TYPHIMURIUM, Strain/Indicator: TA1537, Metabolic Activation: NONE, Method: PREINCUBATION
  mutagenic call: inactive; negative
Test System: AMES SALMONELLA TYPHIMURIUM, Strain/Indicator: TA1537, Metabolic Activation: RAT LIVER S-9, PHENOBARBITAL AND BETA-NAPHTHOFLAVONE, Method: PREINCUBATION
  mutagenic call: active; positive
Test System: AMES SALMONELLA TYPHIMURIUM, Strain/Indicator: TA1538, Metabolic Activation: RAT, LIVER, S-9, AROCLOR 1254, Method: STANDARD PLATE
  mutagenic call: active; positive
Test System: AMES SALMONELLA TYPHIMURIUM, Strain/Indicator: TA1538, Metabolic Activation: RAT, LIVER, S-9, PHENOBARBITAL, Method: STANDARD PLATE
  mutagenic call: active; positive
Test System: AMES SALMONELLA TYPHIMURIUM, Strain/Indicator: YG1024, Metabolic Activation: PLANT (PERSEA AMERICANA) S-117, Method: STANDARD PLATE
  mutagenic call: inactive; negative
Test System: AMES SALMONELLA TYPHIMURIUM, Strain/Indicator: YG1024, Metabolic Activation: PLANT (ZEA MAYS) S-9, Method: STANDARD PLATE
  mutagenic call: inactive; negative
Test System: AMES SALMONELLA TYPHIMURIUM, Strain/Indicator: YG1029, Metabolic Activation: PLANT (PERSEA AMERICANA) S-117, Method: STANDARD PLATE
  mutagenic call: inactive; negative
Test System: AMES SALMONELLA TYPHIMURIUM, Strain/Indicator: YG1029, Metabolic Activation: PLANT (ZEA MAYS) S-9, Method: STANDARD PLATE
  mutagenic call: inactive; negative
Test System: E.COLI, Strain/Indicator: WP2UVRA, Metabolic Activation: NONE, Method: PREINCUBATION
  mutagenic call: inactive; negative
